Key:
Plasmodium falciparum [1] = test: Displacement of [3H]farnesylpyrophosphate from Plasmodium falciparum protein farnesyltransferase at 50 nM by scintillation proximity assay
Plasmodium falciparum [2] = test: Antimalarial activity against chloroquine-resistant, pyrimethamine-resistant Plasmodium falciparum K1 in human red cells; format: functional; details: read-out: ED50 (the source's name)
Plasmodium falciparum [3] = test: Antimalarial activity against chloroquine-sensitive Plasmodium falciparum 3D7 in human red cells; format: functional; details: read-out: ED50 (the source's name)
Plasmodium falciparum [4] = test: Displacement of [3H]farnesylpyrophosphate from Plasmodium falciparum protein farnesyltransferase at 0.5 nM by scintillation proximity assay
Plasmodium falciparum [5] = test: Displacement of [3H]farnesylpyrophosphate from Plasmodium falciparum protein farnesyltransferase at 5 nM by scintillation proximity assay
[6] = (§1) Metabolic stability assessed as half life in mouse liver microsomes; format: ADME, Microsome; details: liver microsomes
Rattus norvegicus [7] = species on record: Rattus norvegicus; test: Inhibition of rat protein farnesyltransferase at 500 nM
Rattus norvegicus [8] = species on record: Rattus norvegicus; test: Inhibition of rat protein farnesyltransferase at 5 nM
Rattus norvegicus [9] = species on record: Rattus norvegicus; test: Inhibition of rat protein farnesyltransferase at 50 nM
Rattus norvegicus [10] = species on record: Rattus norvegicus; test: Inhibition of rat protein farnesyltransferase at 5000 nM
Liver = test: as §1; format: ADME, Microsome; details: microsomes
[11] = Inhibition of Plasmodium falciparum PFT
Plasmodium falciparum [12] = test: Antimalarial activity against Plasmodium falciparum in human red cells; format: functional; details: read-out: ED50 (the source's name)

Row | Structure (SMILES) | inhibition (Plasmodium falciparum [1]) [%] | EC50 (Plasmodium falciparum [2]) [µM] | EC50 (Plasmodium falciparum [3]) [µM] | inhibition (Plasmodium falciparum [4]) [%] | inhibition (Plasmodium falciparum [5]) [%] | half-life [6] [min] | inhibition (Rattus norvegicus [7]) [%] | inhibition (Rattus norvegicus [8]) [%] | inhibition (Rattus norvegicus [9]) [%] | inhibition (Rattus norvegicus [10]) [%] | t1/2 (Liver) [min] | IC50 [11] [µM] | EC50 (Plasmodium falciparum [12]) [µM]
1 | C=C(C)CN(C1Cc2cc(C#N)ccc2N(Cc2cncn2C)C1=O)S(=O)(=O)c1cn(C)cn1 (configuration not stated) | 86 | 2 | 3.2 | 4 | 41 |  |  |  |  |  |  |  | 
2 | Cc1ccccc1CN(C1Cc2cc(C#N)ccc2N(Cc2cncn2C)C1=O)S(=O)(=O)c1cn(C)cn1 (configuration not stated) | 45 | 5 | 5 | 9 | 12 |  |  |  |  |  |  |  | 
3 | Cn1cnc(S(=O)(=O)N(CC(=O)c2ccsc2)C2Cc3cc(C#N)ccc3N(Cc3cncn3C)C2=O)c1 (configuration not stated) | 98 |  |  | 26 | 79 |  |  |  |  |  |  |  | 
4 | Cn1cnc(S(=O)(=O)N(Cc2ccc(F)cc2F)C2Cc3cc(C#N)ccc3N(Cc3cncn3C)C2=O)c1 (configuration not stated) | 80 |  |  | 4 | 27 |  |  |  |  |  |  |  | 
5 | Cn1cnc(S(=O)(=O)NC2Cc3cc(Br)ccc3N(Cc3cncn3C)C2=O)c1 (configuration not stated) | 60 | 3 | 5 | 5 | 15 |  |  |  |  |  |  |  | 
6 | Cn1cncc1CN1C(=O)C(NS(=O)(=O)c2ccccn2)Cc2cc(Br)ccc21 (configuration not stated) | 36 | 5 | 5 | 0 | 15 |  |  |  |  |  |  |  | 
7 | Cn1cnc(S(=O)(=O)N(CC(=O)NC(C)(C)C)C2Cc3cc(C#N)ccc3N(Cc3cncn3C)C2=O)c1 (configuration not stated) | 98 | 0.1 | 0.2 | 25 | 86 | 144 | 62 | 0 | 0 | 86 |  |  | 
8 | Cn1cnc(S(=O)(=O)N(Cc2ccccc2)C2Cc3cc(C#N)ccc3N(Cc3cncn3C)C2=O)c1 (configuration not stated) | 98 | 0.1 | 0.175 | 45 | 88 |  | 5 | 0 | 0 | 61 |  |  | 
9 | Cn1cnc(S(=O)(=O)N(Cc2ccc(S(C)(=O)=O)cc2)C2Cc3cc(Br)ccc3N(Cc3cncn3C)C2=O)c1 (configuration not stated) | 86 |  | 0.85 | 0 | 26 |  | 0 | 0 | 0 | 56 |  |  | 
10 | Cn1cncc1CN1C(=O)C(N(Cc2ccc(S(C)(=O)=O)cc2)S(=O)(=O)c2ccccn2)Cc2cc(C#N)ccc21 (configuration not stated) | 91 | 0.275 | 1.7 | 15 | 60 |  |  |  |  |  |  |  | 
11 | Cn1cnc(S(=O)(=O)N(C(CC(=O)OC(C)(C)C)C(=O)OC(C)(C)C)C2Cc3cc(C#N)ccc3N(Cc3cncn3C)C2=O)c1 (configuration not stated) | 0 | 5 | 5 | 0 | 0 |  |  |  |  |  |  |  | 
12 | Cn1cnc(S(=O)(=O)N(Cc2ccc(S(C)(=O)=O)cc2)C2Cc3cc(C#N)ccc3N(Cc3cncn3C)C2)c1 (configuration not stated) |  |  |  |  |  |  |  |  |  |  | 16 |  | 
13 | Cn1cnc(S(=O)(=O)N(Cc2ccccc2F)C2Cc3cc(C#N)ccc3N(Cc3cncn3C)C2=O)c1 (configuration not stated) | 97 |  | 0.8 | 33 | 71 |  |  |  |  |  |  |  | 
14 | Cn1cnc(S(=O)(=O)N(Cc2ccc(-n3cccn3)cc2)C2Cc3cc(C#N)ccc3N(Cc3cncn3C)C2=O)c1 (configuration not stated) | 100 | 0.15 | 0.08 | 50 | 97 | 9 | 54 | 0 | 4 | 84 |  |  | 
15 | Cc1c(S(=O)(=O)N(CC(=O)NC(C)(C)C)C2Cc3cc(C#N)ccc3N(Cc3cncn3C)C2=O)ncn1C (configuration not stated) | 24 | 5 | 5 | 6 | 11 |  |  |  |  |  |  |  | 
16 | Cn1cnc(S(=O)(=O)N(CC(=O)OC(C)(C)C)C2Cc3cc(C#N)ccc3N(Cc3cncn3C)C2)c1 (configuration not stated) |  |  |  |  |  | 10 |  |  |  |  |  |  | 
17 | Cn1cncc1CN1C(=O)C(N(CC(=O)NC(C)(C)C)S(=O)(=O)c2ccc3c(c2)OCCCO3)Cc2cc(C#N)ccc21 (configuration not stated) | 22 |  | 5 | 0 | 4 |  |  |  |  |  |  |  | 
18 | Cn1cnc(S(=O)(=O)NC2Cc3cc(C#N)ccc3N(Cc3cncn3C)C2=O)c1 (configuration not stated) | 79 |  |  | 0 | 41 |  |  |  |  |  |  |  | 
19 | Cn1cnc(S(=O)(=O)N(Cc2ccccn2)C2Cc3cc(C#N)ccc3N(Cc3cncn3C)C2=O)c1 (configuration not stated) | 8 |  | 5 | 0 | 5 |  |  |  |  |  |  |  | 
20 | Cn1cnc(S(=O)(=O)N(Cc2ccc(C#N)cc2)C2Cc3cc(C#N)ccc3N(Cc3cncn3C)C2=O)c1 (configuration not stated) | 91 | 2.1 | 2.1 | 26 | 56 | 40 |  |  |  |  |  |  | 
21 | Cn1cnc(S(=O)(=O)N(Cc2ccc(C#N)cc2)C2Cc3cc(C#N)ccc3N(Cc3cncn3C)C2)c1 (configuration not stated) |  |  |  |  |  | 3 |  |  |  |  |  |  | 
22 | COC(=O)C1CCC(CN(C2Cc3cc(C#N)ccc3N(Cc3cncn3C)C2=O)S(=O)(=O)c2cn(C)cn2)CC1 (configuration not stated) | 98 |  | 0.105 | 21 | 83 |  |  |  |  |  |  |  | 
23 | Cn1cnc(S(=O)(=O)N(CC(=O)NC(C)(C)C)C2Cc3cc(Br)ccc3N(Cc3cncn3C)C2=O)c1 (configuration not stated) | 98 |  | 0.105 | 24 | 81 |  |  |  |  |  |  |  | 
24 | Cn1cncc1CN1C(=O)C(N(CC(=O)NC(C)(C)C)S(=O)(=O)c2cccc(F)c2)Cc2cc(C#N)ccc21 (configuration not stated) | 56 |  | 3.6 | 0 | 19 | 31 |  |  |  |  |  |  | 
25 | Cn1cnc(S(=O)(=O)N(CC(=O)OC(C)(C)C)C2Cc3cc(C#N)ccc3N(Cc3cncn3C)C2=O)c1 (configuration not stated) | 100 | 0.03 | 0.035 | 62 | 97 | 21 | 75 | 0 | 23 | 92 |  |  | 
26 | COC(=O)N1CCC(CN(C2Cc3cc(C#N)ccc3N(Cc3cncn3C)C2)S(=O)(=O)c2ccccn2)CC1 (configuration not stated) |  |  |  |  |  |  |  |  |  |  |  | 0.0005 | 0.015
27 | Cn1cnc(S(=O)(=O)N(CC(=O)NC(C)(C)C)C2Cc3cc(C#N)ccc3N(Cc3cncn3C)C2)c1 (configuration not stated) |  |  |  |  |  | 17 |  |  |  |  |  |  | 
28 | Cn1cnc(S(=O)(=O)N(Cc2ccc(S(C)(=O)=O)cc2)C2Cc3cc(C#N)ccc3N(Cc3cncn3C)C2=O)c1 (configuration not stated) | 99 |  | 0.08 | 23 | 91 | 133 | 23 | 0 | 0 | 73 |  |  | 
29 | Cn1cnc(S(=O)(=O)N(Cc2ccc(C(F)(F)F)o2)C2Cc3cc(C#N)ccc3N(Cc3cncn3C)C2=O)c1 (configuration not stated) | 92 | 0.325 | 0.625 | 1 | 67 |  |  |  |  |  |  |  | 

Reference: ChEMBL document CHEMBL1140743, “2-Oxotetrahydroquinoline-based antimalarials with high potency and metabolic stability” (J Med Chem, 2008)
